Test system: human adipocytes
Experiment: Lipolytic activity: glycerol released from isolated adipocytes
Assay type: cell-based
Conditions: 90 minutes at 37° C., reference value=0
Method: Method: The adipocytes were isolated from human subcutaneous tissue by the standard Rodbell method (J. of Biolog. Chem.; 1964, 239, 375-380). The extract of Examples 1 to 3 each with two extracts (batches A and B) and the comparison substances were dissolved in a Hanks reference medium with a particular salt concentration (Cell and Tissue Culture, Ed: J. Paul, Churchill and Livingstone, 1975, page 484) and then contacted with the isolated adipocytes for 90 minutes at 37° C. Two to six adipocyte preparations were investigated. The percentage increase in glycerol released was spectrophotometrically determined in the supernatant of the medium by the Carpéné method (J. de Pharmacologie; 1981; 12;219-224).

Structure (SMILES) | % Increase in glycerol released (0.1 μM) [%] | % Increase in glycerol released (1.0 mM) [%]
CC(C)NCC(O)c1ccc(O)c(O)c1 (centres unmarked) [Isoprenalin] | 129 | –
Cn1c(=O)c2[nH]cnc2n(C)c1=O [Theophylline] | – | 187
